Each molecule was assayed on Human Umbilical Vein Endothelial cells (VEGF-stimulated) (assay: HUVEC proliferation assay, VEGF-stimulated). Details: VEGF 50 ng/mL, 72 h, CyQuant, read-out: inhibited VEGF-stimulated HUVEC proliferation at a level.
Type: cell-based
Method: Human Umbilical Vein Endothelial cells are purchased from Clonetics, Inc., as cryopreserved cells harvested from a pool of donors. These cells, at passage 1, are thawed and expanded in EBM-2 complete medium, until passage 2 or 3. The cells are trypsinized, washed in DMEM+10% FBS+antibiotics, and spun at 1000 rpm for 10 min. Prior to centrifugation of the cells, a small amount is collected for a cell count. After centrifugation, the medium is discarded, and the cells are resuspended in the appropriate volume of DMEM+10% FBS+antibiotics to achieve a concentration of 3×10^5 cells/mL. Another cell count is performed to confirm the cell concentration. The cells are diluted to 3×10^4 cells/mL in DMEM+10% FBS+antibiotics, and 100 μL of cells are added to a 96-well plate. The cells are incubated at 37° C. for 22 h.
Prior to the completion of the incubation period, compound dilutions are prepared. Five-point, five-fold serial dilutions are prepared in DMSO, at concentrations 400-fold greater than the final concentrations desired. 2.5 μL of each compound dilution are diluted further in a total of 1 mL DMEM+10% FBS+antibiotics (400× dilution). Medium containing 0.25% DMSO is also prepared for the 0 μM compound sample. At the 22-hour timepoint, the medium is removed from the cells, and 100 μL of each compound dilution is added. The cells are incubated at 37° C. for 2-3 h.
During the compound pre-incubation period, the growth factors are diluted to the appropriate concentrations. Solutions of DMEM+10% FBS+antibiotics, containing either VEGF or bFGF at the following concentrations: 50, 10, 2, 0.4, 0.08, and 0 ng/mL are prepared. For the compound-treated cells, solutions of VEGF at 550 ng/mL or bFGF at 220 ng/mL for 50 ng/mL or 20 ng/mL final concentrations, respectively, are prepared since 10 μL of each will be added to the cells (110 μL final volume). At the appropriate time after adding the compounds, the growth factors are added. VEGF is added to one set of plates, while bFGF is added to another set of plates. For the growth factor control curves, the media on wells B4-G6 of plates 1 and 2 are replaced with media containing VEGF or bFGF at the varying concentrations (50-0 ng/mL). The cells are incubated at 37° C. for an additional 72 h.
At the completion of the 72 h incubation period, the medium is removed, and the cells are washed twice with PBS. After the second wash with PBS, the plates are tapped gently to remove excess PBS, and the cells are placed at −70° C. for at least 30 min. The cells are thawed and analyzed using the CyQuant fluorescent dye (Molecular Probes C-7026), following the manufacturer's recommendations. The plates are read on a Victor/Wallac 1420 workstation at 485 nm/530 nm (excitation/emission). Raw data are collected and analyzed using a 4-parameter fit equation in XLFit. IC50 values are then determined.

Compound	IC50 [µM]
CC1(C)CNC(=O)c2cc(NC(=O)c3cccnc3NCc3ccncc3)ccc21 [Example 946, N-(4,4-Dimethyl-1-oxo-1,2,3,4-tetrahydro-isoquinolin-7-yl)-2-[(pyridin-4-ylmethyl)-amino]-nicotinamide]	< 0.05
CS(=O)(=O)NCCOc1cc(NC(=O)c2cccnc2NCc2ccncc2)ccc1C(F)(F)C(F)(F)F [Example 1031, N-(3-((2-((Methylsulfonyl)amino)ethyl)oxy)-4-(pentafluoroethyl)phenyl)-2-((4-pyridinylmethyl)amino)-3-pyridinecarboxamide]	< 0.05
O=C(Nc1ccc(C(F)(F)C(F)(F)F)cc1)c1cccnc1NCc1ccncc1 [Example 78, N-[4-(1,1,2,2,2-Pentafluoroethyl)phenyl]{2-[(4-pyridylmethyl)amino](3-pyridyl)}carboxamide]	< 0.05
O=C(Nc1ccc(C(F)(F)C(F)(F)F)c(OCCN2CCCCC2)c1)c1cccnc1NCc1ccncc1 [Example 955, N-[4-Pentafluoroethyl-3-(2-piperidin-1-yl-ethoxy)-phenyl]-2-[(pyridin-4-ylmethyl)-amino]-nicotinamide]	< 0.05
CC1(C)CNc2cc(NC(=O)c3cccnc3NCc3ccncc3)ccc2O1 [Example 995, N-(2,2-Dimethyl-3,4-dihydro-2H-benzo[1,4]oxazin-6-yl)-2-[(pyridin-4-ylmethyl)-amino]-nicotinamide]	< 0.05
COc1cc(CNc2ncccc2C(=O)Nc2ccc(C(C)(C)C)c(OC[C@@H]3CCCN3)c2)ccn1 [Example 1067, N-(4-(1,1-dimethylethyl)-3-(((2S)-2-pyrrolidinylmethyl)oxy)phenyl)-2-(((2-(methyloxy)-4-pyridinyl)methyl)amino)-3-pyridinecarboxamide]	< 0.05
CNc1nccc(CNc2ncccc2C(=O)Nc2ccc3c(c2)NC(=O)CC3(C)C)n1 [Example 1115, N-(4,4-Dimethyl-2-oxo-1,2,3,4-tetrahydro-quinolin-7-yl)-2-[(2-methylamino-pyrimidin-4-ylmethyl)-amino]-nicotinamide]	< 0.05
O=C(Nc1cccc(C(F)(F)F)c1)c1cccnc1NCc1ccc2ncccc2c1 [Example 169, {2-[(6-Quinolylmethyl)amino](3-pyridyl)}-N-[3-(trifluoromethyl)phenyl]carboxamide]	< 0.05
CC1(C)Oc2ccc(NC(=O)c3cccnc3NCc3ccncc3)cc2NC1=O [Example 944, N-(2,2-Dimethyl-3-oxo-3,4-dihydro-2H-benzo[1,4]oxazin-6-yl)-2-[(pyridin-4-ylmethyl)-amino]-nicotinamide]	< 0.05
CNc1cc(CNc2ncccc2C(=O)Nc2ccc3c(c2)NCC32CC2)ccn1 [Example 1107, N-(1,2-dihydroindol-3-spiro-1′-cyclopropane-6-yl)-2-[(2-methylaminopyridin-4-ylmethyl)-amino]-nicotinamide]	< 0.05
CC1(C)CC(=O)Nc2cc(NC(=O)c3cccnc3NCc3ccncc3)ccc21 [Example 1114, N-(4,4-Dimethyl-2-oxo-1,2,3,4-tetrahydro-quinolin-7-yl)-2-[(pyridin-4-ylmethyl)-amino]-nicotinamide]	< 0.05
CNc1nccc(CNc2ncccc2C(=O)Nc2ccc(C(F)(F)F)c(OCCNS(C)(=O)=O)c2)n1 [Example 1033, 2-(((2-(Methylamino)-4-pyrirnidinyl)methyl)amino)-N-(3-((2-((methylsulfonyl)amino)ethyl)oxy)-4-(trifluoromethyl)phenyl)-3-pyridinecarboxamide]	< 0.05
CNc1nccc(CNc2ncccc2C(=O)Nc2ccc3c(c2)CN(C)CC3(C)C)n1 [Example 1041, 2-(((2-(methylamino)-4-pyrimidinyl)methyl)amino)-N-(2,4,4-trimethyl-1,2,3,4-tetrahydro-7-isoquinolinyl)-3-pyridinecarboxamide]	< 0.05
O=C(Nc1ccc(Cl)cc1)c1cccnc1NCc1ccc2ncccc2c1 [Example 21, N-(4-Chlorophenyl){2-[(6-quinolylmethyl)amino](3-pyridyl)}carboxamide]	< 0.05

Reference: patent US7687643B2, “Process for preparing 3,3-dimethylindolines” (Amgen Inc., priority 2001, dated 2010)
